Patent publication US20070037831A1, “Methods of using PDE 5 inhibitors for the treatment of congestive heart failure” (priority 2004, published 2007)

Each compound was assayed against PDE V (Homo sapiens, UniProt O76074) (assay: PDE V inhibition (PDE V IC50)).
Format: biochemical

| SMILES | IC50 [nM] |
| --- | --- |
| CCCn1c(=O)n(CC)c(=O)c2c1nc(NC1CCCCC1)n2Cc1cccc(O)c1 [Compound 177] | ≤ 5 |
| CCn1c(=O)c2c(nc(NC3(CO)CC=CC3)n2Cc2ccc(OC)cc2)n(CC)c1=O [Compound 62] | ≤ 5 |
| CCn1c(=O)[nH]c2nc(NC3CCCC3)n(Cc3ccc(O)cc3)c2c1=O [Compound 95] | 5 to 10 |
| COc1ccc(Cn2c(NC3CCCCC3)nc3c2c(=O)n(C)c(=O)n3C)cc1Cl [Compound 159] | 5 to 10 |
| CCCn1c(=O)n(CC)c(=O)c2c1nc(NC1CCCCC1)n2Cc1ccc(S(C)(=O)=O)cc1 [Compound 121] | 15 to 100 |
| CCn1c(=O)c2c(nc(NC3CCCCC3)n2Cc2ccc(O)c(C)c2)n(CCO)c1=O [Compound 112] | 10 to 15 |
| CCn1c(=O)c2c(nc(N[C@@H]3CCC[C@H]3O)n2Cc2cc(Br)c3c(c2)CCO3)n(CCO)c1=O [Compound 128] | 15 to 100 |
| CCn1c(=O)c2c(nc(NC3CCCC3)n2Cc2ccc(O)cc2)n(CC(C)C)c1=O [Compound 59] | 5 to 10 |
| CCn1c(=O)c2c(nc(NC3CCCC3)n2Cc2ccc(OC)cc2)n(CC)c1=O [Compound 60] | ≤ 5 |
| COc1ccc(Cn2c(N[C@@H]3CCc4ccccc43)nc3c2c(=O)n(C)c(=O)n3C)cc1 [Compound 85] | 15 to 100 |
| CCn1c(=O)c2c(nc(NC3CCCC3O)n2Cc2ccccc2)n(CC(C)C)c1=O (centres unmarked) [Compound 58] | 15 to 100 |
| CCn1c(=O)[nH]c2nc(NC3CCCCC3)n(Cc3ccc(OC)cc3)c2c1=O [Compound 92] | 15 to 100 |
| CCn1c(=O)c2c(nc(NC3CCSCC3)n2Cc2ccc(OC)c(Br)c2)n(CC)c1=O [Compound 198] | ≤ 5 |
| CCn1c(=O)c2c(nc(NC3CCCCC3)n2Cc2ccc(O)cc2)n(C)c1=O [Compound 78] | 5 to 10 |
| COc1cccc(Cn2c(NC3CCCCC3)nc3c2c(=O)n(C)c(=O)n3C)c1 [Compound 141] | 15 to 100 |
| CCn1c(=O)c2c(nc(N[C@@H]3CCC[C@H]3O)n2Cc2ccc(OC)c(Br)c2)n(CCO)c1=O [Compound 114] | ≤ 5 |
| CCn1c(=O)c2c(nc(NC3CCCC3)n2Cc2ccc(OC)cc2)n(C)c1=O [Compound 24] | 10 to 15 |
| CCn1c(=O)c2c(nc(NC3CCCCC3)n2Cc2ccccc2)n(CCO)c1=O [Compound 101] | 15 to 100 |
| COc1ccc(Cn2c(NC3(CO)CC=CC3)nc3c2c(=O)n(C)c(=O)n3C)cc1 [Compound 34] | 10 to 15 |
| CCn1c(=O)c2c(nc(NC3CCCCC3)n2Cc2ccc(OC(C)=O)cc2)n(CC)c1=O [Compound 89] | 5 to 10 |
| CCn1c(=O)c2c(nc(NC3CCCCC3)n2Cc2ccc(OC)cc2)n(CC(C)C)c1=O [Compound 39] | 10 to 15 |
| COc1ccc(Cn2c(NC3CCCCC3)nc3c2c(=O)[nH]c(=O)n3C)cc1 [Compound 70] | 15 to 100 |
| CCCn1c(=O)n(CC)c(=O)c2c1nc(NC1CCCCC1)n2Cc1ccccc1F [Compound 173] | 15 to 100 |
| Cn1c(=O)c2c(nc(NC3CCCCC3)n2Cc2ccc(O)c(Cl)c2)n(C)c1=O [Compound 161] | 10 to 15 |
| CCn1c(=O)c2c(nc(NC3CCCCC3)n2Cc2ccc(OC)cc2)n(C)c1=O [Compound 23] | 10 to 15 |
| Cn1c(=O)c2c(nc(NC3CC4CCC3C4)n2Cc2ccc(O)cc2)n(C)c1=O (centres unmarked) [Compound 77] | 15 to 100 |
| CCn1c(=O)c2c(nc(NC3CCCCC3)n2Cc2cccc(Cl)c2)n(CC)c1=O [Compound 120] | 15 to 100 |

| SMILES | IC50 [nM] |
| --- | --- |
| CCn1c(=O)c2c(nc(NC3CCS(=O)(=O)CC3)n2Cc2ccc(OC)c(Br)c2)n(CC)c1=O [Compound 194] | 15 to 100 |
| COc1ccc(Cn2c(NC3CCCCCC3)nc3c2c(=O)n(C)c(=O)n3C)cc1 [Compound 43] | 15 to 100 |
| COc1ccc(Cn2c(NC3CCCC3)nc3c2c(=O)n(C)c(=O)n3C)cc1 [Compound 32] | 15 to 100 |
| CCn1c(=O)c2c(nc(N[C@@H]3CCC[C@H]3O)n2Cc2ccc(S(N)(=O)=O)c(Cl)c2)n(CC)c1=O [Compound 181] | 15 to 100 |
| Cc1ccc(Cn2c(NC3CCCCC3)nc3c2c(=O)n(C)c(=O)n3C)cc1 [Compound 132] | 5 to 10 |
| COc1ccc(Cn2c(NC3(CO)CCCC3)nc3c2c(=O)n(C)c(=O)n3C)cc1 [Compound 13] | 15 to 100 |
| CCn1c(=O)c2c(nc(NC3CCCC3)n2Cc2ccc(O)cc2)n(CC)c1=O [Compound 63] | ≤ 5 |
| CCn1c(=O)c2c(nc(NC3CCCCC3)n2Cc2ccc(OC)cc2)n(CC)c1=O [Compound 61] | ≤ 5 |
| CCn1c(=O)c2c(nc(NC3CCCCC3)n2Cc2ccc(O)cc2)n(CC(C)C)c1=O [Compound 65] | ≤ 5 |
| CCn1c(=O)c2c(nc(NC3CCOCC3)n2Cc2ccc(S(N)(=O)=O)c(Br)c2)n(CC)c1=O [Compound 190] | 5 to 10 |
| CCn1c(=O)c2c(nc(NC3CCCCC3)n2Cc2ccc(O)cc2)n(CC)c1=O [Compound 64] | ≤ 5 |
| CCCn1c(=O)n(CC)c(=O)c2c1nc(NC1CCCCC1)n2Cc1ccc(OC)c(Cl)c1 [Compound 171] | 5 to 10 |
| CCn1c(=O)c2c(nc(NC3CCSCC3)n2Cc2ccc(OC)c(Cl)c2)n(CC)c1=O [Compound 197] | ≤ 5 |
| CCn1c(=O)c2c(nc(NC3CCCCC3)n2Cc2cc3c(cc2Cl)OCO3)n(CCO)c1=O [Compound 108] | 10 to 15 |
| CCn1c(=O)c2c(nc(N[C@@H]3CCC[C@H]3O)n2Cc2ccc(O)c(Cl)c2)n(CCO)c1=O [Compound 115] | 5 to 10 |
| COc1ccc(Cn2c(=O)c3c(nc(NC4CCCC4)n3Cc3ccc(OC)cc3)n(C)c2=O)cc1 [Compound 22] | 5 to 10 |
| CCCn1c(=O)n(CC)c(=O)c2c1nc(NC1CCCCC1)n2Cc1ccc2c(c1)OCO2 [Compound 175] | 5 to 10 |
| Cn1c(=O)[nH]c(=O)c2c1nc(NC1CCCCC1)n2Cc1ccc(O)cc1 [Compound 71] | 15 to 100 |
| CCCn1c(=O)n(CC)c(=O)c2c1nc(NC1CCCCC1)n2Cc1ccc(O)c(Cl)c1 [Compound 172] | 5 to 10 |
| Cn1c(=O)c2c(nc(NC3CCCCCC3)n2Cc2ccc(O)cc2)n(C)c1=O [Compound 69] | 15 to 100 |
| Cc1cccc(Cn2c(NC3CCCCC3)nc3c2c(=O)n(C)c(=O)n3C)c1 [Compound 131] | 15 to 100 |
| CCn1c(=O)c2c(nc(NC3CCCCC3)n2Cc2ccccc2F)n(CC)c1=O [Compound 165] | 15 to 100 |
| CCn1c(=O)c2c(nc(NC3CCCCC3)n2Cc2ccc(S(N)(=O)=O)c(Br)c2)n(CCO)c1=O [Compound 184] | 15 to 100 |
| CCn1c(=O)c2c(nc(NC3CCCCC3)n2Cc2ccc(S(N)(=O)=O)c(Br)c2)n(CC)c1=O [Compound 180] | 5 to 10 |
| Cn1c(=O)c2c(nc(NC3CCCCC3)n2Cc2cc3c(cc2Cl)OCO3)n(C)c1=O [Compound 160] | 10 to 15 |
| CCn1c(=O)c2c(nc(NC3CCCCC3)n2Cc2ccc(S(N)(=O)=O)cc2)n(CCO)c1=O [Compound 182] | 15 to 100 |
| CCn1c(=O)c2c(nc(NC3(CO)CC=CC3)n2Cc2ccc(OC)cc2)n(C)c1=O [Compound 25] | 15 to 100 |

| SMILES | IC50 [nM] |
| --- | --- |
| Cn1c(=O)[nH]c(=O)c2c1nc(NC1CCCC1)n2Cc1ccc(O)cc1 [Compound 68] | 5 to 10 |
| CCn1c(=O)c2c(nc(NC3CCCCC3)n2Cc2ccccc2)n(CC)c1=O [Compound 29] | 10 to 15 |
| CCn1c(=O)[nH]c2nc(NC3CCCC3)n(Cc3ccc(OC)cc3)c2c1=O [Compound 93] | 10 to 15 |
| COc1ccc(Cn2c(NC3CCCCC3)nc3c2c(=O)n(C)c(=O)n3C)cc1C [Compound 144] | 10 to 15 |
| CCn1c(=O)c2c(nc(NC3CCCC3)n2Cc2ccccc2)n(CC(C)C)c1=O [Compound 55] | 15 to 100 |
| Cn1c(=O)c2c(nc(NC3CCCCC3)n2Cc2ccccc2)n(C)c1=O [Compound 16] | 15 to 100 |
| CCn1c(=O)c2c(nc(N[C@@H]3CCC[C@@H]3O)n2Cc2ccccc2)n(CC)c1=O [Compound 14] | 15 to 100 |
| COc1ccc(Cn2c(=O)c3c(nc(NC4(CO)CC=CC4)n3Cc3ccc(OC)cc3)n(C)c2=O)cc1 [Compound 67] | ≤ 5 |
| CCn1c(=O)c2c(nc(NC3CCOCC3)n2Cc2ccc(S(N)(=O)=O)c(Cl)c2)n(CC)c1=O [Compound 191] | ≤ 5 |
| CCn1c(=O)c2c(nc(NC3(CO)CCCC3)n2Cc2ccc(OC)cc2)n(CC(C)C)c1=O [Compound 41] | 15 to 100 |
| CCn1c(=O)c2c(nc(N[C@@H]3CCC[C@H]3O)n2Cc2ccc(S(N)(=O)=O)cc2)n(CC)c1=O [Compound 126] | 15 to 100 |
| CCn1c(=O)c2c(nc(NC3CCCCC3)n2Cc2ccccc2)n(CC(C)C)c1=O [Compound 56] | 15 to 100 |
| CCn1c(=O)c2c(nc(NC3CCCC3O)n2Cc2ccc(OC)cc2)n(CC(C)C)c1=O (centres unmarked) [Compound 40] | 10 to 15 |
| COc1ccc(Cn2c(N[C@@H]3CCC[C@@H]3O)nc3c2c(=O)n(C)c(=O)n3CC(C)C)cc1 [Compound 17] | 15 to 100 |
| CCn1c(=O)c2c(nc(NC3CCCCC3)n2Cc2ccc(C(=O)OC)cc2)n(CC)c1=O [Compound 99] | 5 to 10 |
| CCn1c(=O)c2c(nc(NC3CCCCC3)n2Cc2ccc(OC)c(C)c2)n(CC)c1=O [Compound 166] | 15 to 100 |
| CCn1c(=O)c2c(nc(NC3CCCCC3)n2Cc2ccc(OC)c(C)c2)n(CCO)c1=O [Compound 110] | 5 to 10 |
| CCn1c(=O)c2c(nc(NC3CCCCC3)n2Cc2ccc(C(F)(F)F)cc2)n(CC(C)C)c1=O [Compound 96] | 15 to 100 |
| Cn1c(=O)c2c(nc(NC3CCCC3)n2Cc2ccccc2)n(C)c1=O [Compound 15] | 15 to 100 |
| CCn1c(=O)c2c(nc(N[C@@H]3CCC[C@H]3O)n2Cc2ccc(OC)c(C)c2)n(CCO)c1=O [Compound 111] | 10 to 15 |
| CCn1c(=O)c2c(nc(N[C@@H]3CCC[C@H]3O)n2Cc2ccc(O)c(C)c2)n(CCO)c1=O [Compound 113] | 15 to 100 |
| COc1ccc(Cn2c(=O)c3c(nc(NC4CCCCC4)n3Cc3ccc(OC)cc3)n(C)c2=O)cc1 [Compound 21] | 5 to 10 |
| COc1ccc(Cn2c(NC3(CO)CCCC3)nc3c2c(=O)n(C)c(=O)n3CC(C)C)cc1 [Compound 18] | 15 to 100 |
| CCn1c(=O)c2c(nc(NC3CCC(F)(F)CC3)n2Cc2ccc(OC)c(Br)c2)n(CC)c1=O [Compound 199] | 5 to 10 |
| CCn1c(=O)c2c(nc(N[C@H]3CC[C@H](O)CC3)n2Cc2ccc(OC)c(Br)c2)n(CC)c1=O [Compound 125] | 10 to 15 |
| Cn1c(=O)c2c(nc(NC3CCCCC3)n2Cc2ccc3c(c2)OCO3)n(C)c1=O [Compound 142] | ≤ 5 |
